PubChem BioAssay AID1918948 (Molecular Pharmacology Branch, DTP, NCI, 2023)
Several values for one entry are separate records, joined by “and”; a condition that tells them apart may be missing. Equal values may be shown once.

System: K-562 leukemia growth, % test/control
Assay: Anticancer human tumor K-562 cell line growth inhibition;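 further: spheroids exposed to compounds for 7 days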;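 on viability, T/C: 100% = DMSO vehicle wells and lower values mean fewer viable cells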
Settings: spheroids with HUVEC and MSC; for viability, T/C: stronger effect = lower value
Procedure, shortened: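 Multicellular complex spheroids of tumor cells with human endothelial cells (HUVEC) and mesenchymal stem cells; the LSD1 inhibitor iadademstat was combined with standard-of-care or investigational agents. Top concentration at or near clinical Cmax, half-log dilutions; final DMSO ≤0.25%.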

O=C(C=Cn1cnc(-c2cc(C(F)(F)F)cc(C(F)(F)F)c2)n1)NNc1cnccn1 + NC1CC1c1ccc(-c2cccc(O)c2)cc1 showed an IC50 (curve of first compound, second compound 0.1 µM) of 115 nM, an IC50 (curve of first compound, second compound 0.316 µM) of 76.5 nM and an IC50 (curve of first compound, second compound 1 µM) of 67.6 nM. The IC50 (curve of first compound, second compound 3.16 µM) was 66.7 nM, the IC50 (curve of first compound, second compound 10 µM) was 50.2 nM and the viability, T/C (second compound 0.1 µM, first compound 0.00316 µM) was 106%. The viability, T/C (second compound 0.1 µM, first compound 0.01 µM) was 103%, the viability, T/C (second compound 0.1 µM, first compound 0.0316 µM) was 93.5% and the viability, T/C (second compound 0.1 µM, first compound 0.1 µM) was 56.2%. It also gave a viability, T/C (second compound 0.1 µM, first compound 0.316 µM) of 9.94%, a viability, T/C (second compound 0.1 µM, first compound 1 µM) of 1.19% and a viability, T/C (second compound 0.316 µM, first compound 0.00316 µM) of 106%. For the same compound, the viability, T/C (second compound 0.316 µM, first compound 0.01 µM) was 103%, the viability, T/C (second compound 0.316 µM, first compound 0.0316 µM) was 83.1% and the viability, T/C (second compound 0.316 µM, first compound 0.1 µM) was 40.1%. The viability, T/C (second compound 0.316 µM, first compound 0.316 µM) was 9.06%, the viability, T/C (second compound 0.316 µM, first compound 1 µM) was 1.23% and the viability, T/C (second compound 1 µM, first compound 0.00316 µM) was 102%. It also gave a viability, T/C (second compound 1 µM, first compound 0.01 µM) of 96.4%, a viability, T/C (second compound 1 µM, first compound 0.0316 µM) of 80.7% and a viability, T/C (second compound 1 µM, first compound 0.1 µM) of 34%. The viability, T/C (second compound 1 µM, first compound 0.316 µM) was 8.67%, the viability, T/C (second compound 1 µM, first compound 1 µM) was 1.78% and the viability, T/C (second compound 3.16 µM, first compound 0.00316 µM) was 97%. It also gave a viability, T/C (second compound 3.16 µM, first compound 0.01 µM) of 94.9%, a viability, T/C (second compound 3.16 µM, first compound 0.0316 µM) of 73.4% and a viability, T/C (second compound 3.16 µM, first compound 0.1 µM) of 37.6%. The viability, T/C (second compound 3.16 µM, first compound 0.316 µM) was 8.04%, the viability, T/C (second compound 3.16 µM, first compound 1 µM) was 1.27% and the viability, T/C (second compound 10 µM, first compound 0.00316 µM) was 91.4%. The viability, T/C (second compound 10 µM, first compound 0.01 µM) was 91.3%, the viability, T/C (second compound 10 µM, first compound 0.0316 µM) was 59.8% and the viability, T/C (second compound 10 µM, first compound 0.1 µM) was 32.7%. The viability, T/C (second compound 10 µM, first compound 0.316 µM) was 6.57% and the viability, T/C (second compound 10 µM, first compound 1 µM) was 2.98%.
CCN(c1cc(-c2ccc(CN3CCOCC3)cc2)cc(C(=O)NCc2c(C)cc(C)[nH]c2=O)c1C)C1CCOCC1 was tested, and the viability, T/C (compound 0.00949 µM) was 110% and 112%, the viability, T/C (compound 0.03 µM) was 107% and 112% and the viability, T/C (compound 0.0949 µM) was 105% and 114%. The viability, T/C (compound 0.3 µM) was 105%, the viability, T/C (compound 0.949 µM) was 107% and 76.7% and the viability, T/C (compound 3 µM) was 104% and 38.9%. For the same compound, the IC50 (curve of compound) was > 3000 nM and 2140 nM.
In the case of NC1CCC(NC2CC2c2ccccc2)CC1 (stereo not given), the viability, T/C (compound 0.1 µM) is reported as 99% [middle of 24 runs], the viability, T/C (compound 0.316 µM) is reported as 100% and 101% and 98.9% and the viability, T/C (compound 1 µM) is reported as 103% [middle of 25 runs]. For the same compound, the viability, T/C (compound 3.16 µM) was 103% [middle of 25 runs], the viability, T/C (compound 10 µM) was 100% [middle of 23 runs] and the IC50 (compound alone, run of 01/18/2022) was > 10000 nM.
For Nc1ncn(C2CC(O)C(CO)O2)c(=O)n1 (stereo not given), the viability, T/C (compound 0.00316 µM) was 94.7% and 99.7%, the viability, T/C (compound 0.01 µM) was 93.9% and 96.9% and the viability, T/C (compound 0.0316 µM) was 88.5% and 96.1%. For the same compound, the viability, T/C (compound 0.1 µM) was 79.7% and 89.2%, the viability, T/C (compound 0.316 µM) was 72.3% and 74.6% and the viability, T/C (compound 1 µM) was 67.1% and 75.9%. For the same compound, the IC50 (curve of compound) was > 1000 nM.
